Values of other authors, collected in US20100028446A1, “TRANSPORT OF DRUGS VIA THE BLOOD-BRAIN BARRIER BY MEANS OF APOLIPOPROTEINS” (priority 2007, published 2010).

Conditions: loaded on hydrophilic-protein nanoparticles coupled with apolipoprotein E

In the case of Dalargin, the “transport across the blood-brain barrier” value is listed as “successfully transported across the blood-brain barrier”.
